Test results from patent publication US20170260169A1, “INHIBITORS FOR STEROID RESPONSE ELEMENTS AND RNA POLYMERASE II AND RELATED METHODS” (priority 2007, published 2017).

Assays:
GILZ enhancer GRE2 = assay: Quantitative DNase I footprint titration on pKAM5 fragment, GRE2; format: binding
Procedure: Detailed experimental protocols are reported elsewhere (44). The GILZ enhancer contains two GREs separated by 22 base pairs (46). GRE 1 is 5'-[NT]=3' (SEQ ID NO:5) and GRE 2 is […] ID NO:7). The DNA binding of polyamides 1 and 2 on these sequences was measured by quantitative DNase I footprint. […] […]).

[1] = test system: transcripts in DHT-stimulated LNCaP cells; assay: Gene expression with Affymetrix Human Genome U133 Plus 2.0 arrays, DHT-stimulated LNCaP cells; format: cell-based
Procedure: LNCaP cells were plated in 12-well plates at a density of 80-100×10^3 cells per well. Media, polyamide treatments, and time courses were the same as described above. Bicalutamide was added 2 h before DHT stimulation. RNA was isolated as described in ref. 21. From this point, experiments were carried out at the Millard and Muriel Jacobs Gene Expression Facility at the California Institute of Technology. Labeled mRNA was hybridized to Affymetrix high-density Human Genome U133 Plus 2.0 arrays according to established protocols. Gene expression was analyzed by using Resolver (Rosetta Biosoftware, Seattle, Wash.). Data were uploaded to the Gene Expression Omnibus repository (accession no. GSE7708).
Global effects of polyamides 1 and 2 and bicalutamide on gene expression in DHT-stimulated LNCaP cells were monitored with Affymetrix (Santa Clara, Calif.) high-density Human Genome U133 Plus 2.0 arrays, which interrogate >50,000 transcripts.

[2] = Multiple-dose subcutaneous injections, male C57BL/6J mice; format: in vivo; conditions: 1 mg/kg SC every 3 days
Procedure, shortened: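 Eight-week-old male C57BL/6J mice (n=3 per group) received 1 mg/kg polyamide subcutaneously every 3 days for three injections and were sacrificed two days after the last dose. Serum was collected by retroorbital bleeding for analysis, and two mice per group underwent histopathology.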

[3] = cited from earlier work
[4] = Serum circulation after subcutaneous injection in C57BL/6 mice; format: in vivo; conditions: 120 nmol, 5% DMSO/PBS
Procedure: To investigate if polyamide 77 could be detected in peripheral blood after SC injections, 120 nmol of 77 (in 5% DMSO/PBS) was injected into the right flank of four C57BL/6 mice. Blood was collected from anesthetized mice via retroorbital collection at 5 minutes, 4 h, and 12 h after injection, then processed by methods previously described and analyzed by HPLC (35). For measurement of serum PSA (KLK3) and uric acid, blood was collected from anesthetized mice via retroorbital collection at experimental endpoint and serum was separated from blood by centrifugation. Serum PSA (KLK3) was measured by ELISA (R&D systems) according to manufacturer's instructions. Uric acid was measured as described (36).
We synthesized four structurally related polyamides (FIG. 28) that have an identical Py-Im sequence ImPyPyPy-γ-ImPyPyPy-NHMe-IPA.

[5] = test system: FKBP5 mRNA expression in LNCaP cells; assay: DHT-induced FKBP5 mRNA in LNCaP cells; format: cell-based
[6] = test system: duplex DNA containing the target site 5′-WGWWCW-3′; assay: Thermal denaturation assay of DNA duplexes; format: binding; conditions: duplex 5′-CGATGTTCAAGC-3′
Procedure: Polyamides 77 and 85 were incubated with duplex DNA 5′-[…]-3′ (SEQ ID NO:36), which contains the predicted target site for these compounds (underscore). Melting temperature analyses were performed on a Varian Cary 100 spectrophotometer as described (46). Melting temperatures were defined as a maximum of the first derivative of absorbance at 260 nm over the range of temperatures.
Thermal stabilization of the DNA oligo 5′-[…]-3′ (SEQ ID NO:37) by 77-80 (target sequence underlined) was determined as previously described (26).

p53 target genes = assay: Quantitative RT-PCR of p53 target genes in LNCaP cells; format: cell-based
Procedure: RNA was extracted using RNEasy columns (Qiagen) according to manufacturer's protocols. cDNA was generated from RNA by reverse transcriptase (Transcriptor First Strand cDNA kit, Roche). Quantitative real-time RT-PCR was performed using SYBR Green PCR Master Mix (Applied Biosystems) on an ABI 7300 instrument. mRNA was measured relative to B glucuronidase as an endogenous control.
The cells were then treated with 1, 3, and 10 μM of 78 for 72 h. Total cellular RNA was extracted using RNEasy columns (Qiagen) following the manufacturer's protocols. Isolated RNA was reverse transcribed with Transcriptor First Strand cDNA kit (Roche). Quantitative real-time PCR was performed using SYBR Green PCR Master Mix (Applied Biosystems) on an ABI 7300 instrument. Amplification of p21, IGFBP3, and GADD45A cDNA was measured relative to β-glucuronidase using previously published primers (24). Experiments were performed in biological replicates.

RPB1 = RPB1 protein ELISA in LNCaP cells; format: cell-based; conditions: polyamide 10 μM 72 hr; doxorubicin 1 μM 24 hr
Procedure: […] Cells treated with DMSO vehicle and 1 μM doxorubicin for 24 h were used as control. Cellular RBP1 levels were determined by a RPB1 specific ELISA kit (Cusabio Life Sciences) according to manufacturer's instructions. Total cellular p53 protein level was determined with a pan-p53 ELISA kit (Roche) according to manufacturer's instructions. Assays were performed in biological triplicates.

[7] = 10 μM, + DHT, relative to DHT-induced controls, p ≦ 0.01
[8] = relative to DHT-induced controls, + DHT

For `CN(CCCNC(=O)c1cccc(C(=O)O)c1)CCCNC(=O)c1cc(NC(=O)c2cc(NC(=O)c3cc(NC(=O)c4nc(NC(=O)[C@H](N)CCNC(=O)c5cc(NC(=O)c6cc(NC(=O)c7cc(NC(=O)c8nccn8C)cn7C)cn6C)cn5C)cn4C)cn3C)cn2C)cn1C` [Polyamide 1, ImPyPyPy-2-(R)H^2Nγ-ImPyPyPy-NHMe-IPA], the Ka (GILZ enhancer GRE2) was 8.8±1.8×10^9, the “Number of transcripts down-regulated (fold change ≦ −2.0)” value [1, 7] was 706 and the “Number of transcripts down-regulated (fold change ≦ −4.0)” value [1, 7] was 126. For the same molecule, the “Number of transcripts up-regulated (fold change ≧ 2.0)” value [1, 7] was 347, the “Number of transcripts up-regulated (fold change ≧ 4.0)” value [1, 7] was 42 and the “number of transcripts affected by at least 2-fold” value ([1]; 10 μM, P≦0.01, vs DHT-induced controls) was 1,053. For the same molecule, the “share of interrogated transcripts affected” value ([1]; 10 μM, at least 2-fold) was “less than 2%”, the “share of transcripts induced at least 4-fold by DHT whose expression is inhibited” value ([1]; LNCaP cells) was “≈ 35%” and the “number of the 88 DHT-repressed transcripts derepressed at least 2-fold” value ([1]; P≦0.01) was “eight”. For the same molecule, the “number of the 199 DHT-induced transcripts inhibited at least 2-fold” value ([1]; P≦0.01) was 70, the “Fold-change of FKBP5” value [1, 8] was −3.1 and the “Fold-change of KLK2” value [1, 8] was −2.4. The “Fold-change of KLK3 (PSA)” value [1, 8] was −3.3, the “Fold-change of TMPRSS2” value [1, 8] was −2.3 and the “liver and kidney histopathology” value [2] was “mild multifocal hepatocellular necrosis and apoptosis in the liver and mild variable tubular attenuation, karyomegaly and epithelial necrosis and apoptosis in the kidney”. The “liver and kidney serum markers” value [2] was “elevated AST and ALT”, the “weight and physical morbidity” value ([2]; three injections, listed as 77) was “no loss in weight or physical morbidities” and the “animal toxicity after single subcutaneous administration” value ([3]; female C57BL/6J mice, 77 at 2.5 and 5 mg/kg, 80 at 2.3 and […]) was “did not adversely affect the animals”. For the same molecule, the weight loss ([3]; female mice, 10 mg/kg SC) was “greater than 15%”, the doses without toxicity ([3]; mouse, in vivo) was “less than 10 mg/kg” and the “circulation after SC injection” value [4] was “detectable circulation”. The “inhibition of DHT-induced expression of FKBP5” value [5] was “≈ 60%”, the “DNA thermal stability analysis” value [6] was “comparable DNA binding” and the “induction of p53 target genes” value (p53 target genes) was “induced expression of p53 genes”. The RPB1 protein (RPB1) was “decreases”.
